Assay results from BindingDB's records for doi:10.1002/1439-7633(20010601)2 (Universit&Eacute, 2001).

Target: Acetylcholinesterase (Torpedo marmorata, UniProt P07692)
Assay: Enzyme Assay
Conditions: pH 4; 25 °C
Method: The inhibitory activity of the equilibrated mixtures was determined. The activity of AChE was monitored by following the linear change in absorbance at 412 nm over 30s at 25C.

Chain of Acetylcholinesterase (P07692 whole entry): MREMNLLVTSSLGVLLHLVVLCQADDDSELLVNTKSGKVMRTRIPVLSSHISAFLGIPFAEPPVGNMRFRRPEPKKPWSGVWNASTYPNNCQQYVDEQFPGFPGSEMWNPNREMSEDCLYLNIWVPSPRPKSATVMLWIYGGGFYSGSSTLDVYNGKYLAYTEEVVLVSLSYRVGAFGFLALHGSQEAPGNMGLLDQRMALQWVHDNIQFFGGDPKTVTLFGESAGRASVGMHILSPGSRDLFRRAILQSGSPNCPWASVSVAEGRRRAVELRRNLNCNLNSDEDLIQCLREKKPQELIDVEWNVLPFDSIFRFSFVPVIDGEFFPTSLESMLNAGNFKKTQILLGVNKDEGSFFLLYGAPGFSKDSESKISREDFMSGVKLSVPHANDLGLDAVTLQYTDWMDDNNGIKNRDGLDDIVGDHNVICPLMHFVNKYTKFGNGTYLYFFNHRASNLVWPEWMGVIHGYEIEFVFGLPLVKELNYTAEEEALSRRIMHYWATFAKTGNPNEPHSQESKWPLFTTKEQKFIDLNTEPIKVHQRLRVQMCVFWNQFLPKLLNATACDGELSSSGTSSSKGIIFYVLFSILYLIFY

| SMILES | IC50 [nM] |
| --- | --- |
| c1cc[n+](CCCCCCCCCC[n+]2ccccc2)cc1 [1,10-di(1-pyridiniumyl)decane; diiodide] | 25.8 |
| c1cc[n+](CCCCCCCCCCCC[n+]2ccccc2)cc1 [1,12-Bis(pyridinium)dodecane] | 16 |
| C[N+](C)(C)CCCCCCCCCCCC[N+](C)(C)C [N1,N1,N1,N12,N12,N12-hexamethyldodecane-1,12-diaminium bromide] | 93.2 |
| O=C(C[n+]1ccccc1)N/N=C/c1ccc(/C=N/NC(=O)C[n+]2ccccc2)cc1 [Terephthalaldehyde, 4-I-4] | 2.3 |
